Test results published in patent US12122771B2, “Compounds useful for treatment of substance use disorder” (HIGH POINT UNIVERSITY, priority 2021, dated 2024).

Experiments:
hD2R = hD2R (Homo sapiens (Human), UniProt P14416); assay: [3H]N-methylspiperone competition binding, D2R; conditions: HEK 293 membranes, read-out: Ki (nM) ± SEM D2R
hD4R = hD4R (Homo sapiens (Human), UniProt P21917); assay: [3H]N-methylspiperone competition binding, D4R; conditions: for Ki: HEK 293 membranes, [3H]N-methylspiperone, read-out: Ki (nM) ± SEM D4R; for Selectivity D2R/D4R / Selectivity D3R/D4R: ratio of Ki values
Chain of hD4R (P21917 whole entry): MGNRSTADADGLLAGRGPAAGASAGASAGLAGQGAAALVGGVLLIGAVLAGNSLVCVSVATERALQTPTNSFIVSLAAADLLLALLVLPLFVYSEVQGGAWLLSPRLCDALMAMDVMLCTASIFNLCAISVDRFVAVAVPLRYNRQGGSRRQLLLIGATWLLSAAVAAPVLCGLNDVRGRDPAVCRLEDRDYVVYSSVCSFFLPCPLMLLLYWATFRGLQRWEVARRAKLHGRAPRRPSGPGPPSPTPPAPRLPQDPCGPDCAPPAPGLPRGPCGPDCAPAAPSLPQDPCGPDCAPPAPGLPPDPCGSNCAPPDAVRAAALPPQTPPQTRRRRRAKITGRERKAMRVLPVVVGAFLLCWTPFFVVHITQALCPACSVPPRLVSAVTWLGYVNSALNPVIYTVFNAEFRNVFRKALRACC

hD3R = hD3R (Homo sapiens (Human), UniProt P35462); conditions: read-out: Ki (nM) ± SEM D3R; HEK 293 membranes, [3H]N-methylspiperone
Chain of hD3R (P35462 whole entry): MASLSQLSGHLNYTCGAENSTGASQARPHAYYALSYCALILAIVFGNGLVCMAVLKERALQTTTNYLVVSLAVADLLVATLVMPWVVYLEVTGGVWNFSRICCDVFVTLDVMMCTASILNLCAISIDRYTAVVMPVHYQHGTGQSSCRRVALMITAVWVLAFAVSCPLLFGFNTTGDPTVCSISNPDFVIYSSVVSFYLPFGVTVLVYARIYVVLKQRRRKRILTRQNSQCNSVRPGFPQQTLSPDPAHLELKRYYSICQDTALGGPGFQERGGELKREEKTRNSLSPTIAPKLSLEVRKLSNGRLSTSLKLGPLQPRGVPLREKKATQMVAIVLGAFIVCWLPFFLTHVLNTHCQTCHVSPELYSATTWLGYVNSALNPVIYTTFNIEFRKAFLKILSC

cocaine intake = conditions: monkeys; cited from earlier work

Chain of hD2R (P14416 whole entry): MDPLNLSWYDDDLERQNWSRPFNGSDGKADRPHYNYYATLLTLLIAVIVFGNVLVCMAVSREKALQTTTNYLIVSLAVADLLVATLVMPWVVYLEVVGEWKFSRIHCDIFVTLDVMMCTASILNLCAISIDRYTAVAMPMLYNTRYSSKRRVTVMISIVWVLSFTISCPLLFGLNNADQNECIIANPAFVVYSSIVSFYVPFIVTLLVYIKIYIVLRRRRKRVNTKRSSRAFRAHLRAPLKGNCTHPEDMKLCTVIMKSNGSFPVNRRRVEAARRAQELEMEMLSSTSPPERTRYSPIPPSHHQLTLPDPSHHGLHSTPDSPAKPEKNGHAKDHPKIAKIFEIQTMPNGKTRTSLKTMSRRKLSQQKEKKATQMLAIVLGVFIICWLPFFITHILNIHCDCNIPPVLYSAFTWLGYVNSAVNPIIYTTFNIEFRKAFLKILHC

| Compound | Ki (hD2R) | D4R binding selectivity vs. D2R and D3R (other D2-like receptors) (hD4R) | Ki (hD4R) | Selectivity D2R/D4R (hD4R) | Selectivity D3R/D4R (hD4R) | Ki (hD3R) | cocaine intake (cocaine intake) |
| --- | --- | --- | --- | --- | --- | --- | --- |
| Cc1cccc2nc(CCCN3CCC(c4ccccn4)CC3)sc12 [Compound 15] | 18000 ± 15200 nM | > 15907 fold | 1.13 ± 0.27 nM | 15907 | 32756 | 37100 ± 30300 nM |  |
| CCc1ccnc(C2CCN(CCCc3nc4ccccc4s3)CC2)c1 [Compound 19] | 12300 ± 7670 nM |  | 5.89 nM | 2082 | 2838 | 16700 ± 13300 nM |  |
| c1ccc(-c2ncc(CN3CCN(c4ncccn4)CC3)[nH]2)cc1 [NGD-94-1] |  |  |  |  |  |  | reduced cocaine intake |
| Ro10-5824 |  |  |  |  |  |  | reduced cocaine intake |
